Like-named read-outs stand apart in the source and are kept apart here. No end group written: not given here.
Columns and labels:
[1] = tested on: C57/B6 mice; test: Doxorubicin-induced cardiomyopathy in adult mice, heart weight; format: in vivo; conditions: for average heart weight: sixth day
Procedure: (§1) To evaluate the effects of the long-acting stable analog on heart failure, we treated 8-week-old C57/B6 mice with doxorubicin (10 mg/kg body weight) to induce cardiomyopathy. After the injection of doxorubicin, the animals were injected with wild-type ADM or the long-acting stable analog twice daily. After five days of treatment, the animals were sacrificed, and hearts were collected for weight determination individually. In addition, we collected blood samples for the determination of aspartate aminotransferase activity. Sham adult mice at the same ages were used as normal controls.

[2] = tested on: C57/B6 mice; format: in vivo
Procedure: as §1
In a separate series of study, we evaluated the effects of stable analog on blood aspartate aminotransferase levels (FIG. 4b).

[3] = tested on: normal pregnant Sprague Dawley rats; test: Blood pressure after bolus IP injection in instrumented normal pregnant Sprague Dawley rats; format: in vivo, rat; conditions: for duration of sustained reduction of blood pressure (hypotensive effect): bolus IP injection, 100 nmoles/kg, normal pregnant Sprague Dawley rats
From the text: (§2) Bolus IP injection of the long-acting stable analog (100 nmoles/kg) led to a sustained reduction of blood pressure for 4 hr in normal pregnant Sprague Dawley rats, whereas the hypotensive effects of wild-type ADM disappeared within 2 hr (FIG. 1a). In addition, we compared the blood pressure-lowering effect of the long-acting stable analog in pregnant Sprague Dawley rats and pregnant spontaneous hypertensive rats (SHR). […] This characteristic not only allows less frequent dosing in clinical condition but also increases the therapeutic index of long-acting CLR/RAMP receptor agonists.

[4] = tested on: RUPP pregnant rats; test: Reduced uterine perfusion pressure (RUPP) preeclampsia rat model, osmotic mini-pump infusion for 4 days; format: in vivo
Procedure: To evaluate the effects of the long-acting stable analog for the treatment of preeclampsia, resistant hypertension, hypertensive crisis, vascular ischemic injury, and pregnancy hypertension, we tested the analog in a reduced uterine perfusion pressure (RUPP) preeclampsia rat model. The model was first described by Dr. Joey P. Granger et al. (2000, Hypertension 37:1191-1195). Briefly, pregnant rats weighing 200-250 g at 14 days of gestation were anesthetized with pentobarbital (40 mg/kg, i.p.). The lower abdomen area was shaved and the skin was swabbed with surgical scrub (iodine and alcohol). A 3-cm skin incision was made at the midline. After a midline incision, the lower abdominal aorta was isolated and a silver clip (0.203 mm) was placed around the aorta above the iliac bifurcation. Because compensatory blood flow to the placenta occurs via an adaptive increase in […] blood flow during pregnancy, both right and left […] arcades were clipped (silver clip, 0.100 mm). RUPP rats were divided into two groups, and an osmotic mini-pump (ALZET) loaded with saline or the long-acting analog was implanted in the upper abdomen. The mini-pumps delivered the solution at a rate of 1 ul/hr. Sham pregnant rats were used as normal controls.
The incision was closed with absorbable braided surgical suture. After awake, animals were given buprenorphine 0.1 mg/kg s.c. once a day for three days. These procedures reduced uterine blood flow in the gravid rat by >40%, and cause hypertension and intrauterine growth restriction in the fetus.
After 4 days of the treatments, all rats were anesthetized and catheterized for measurement of blood pressure and heart rate. Animals were anesthetized with pentobarbital, and a Mikro-tip catheter (1.0 F pressure catheter, Miller, Tex.) was placed into the right carotid artery. After insertion, the catheter was advanced into the aorta, and stopped at the appearance of arterial pressure curve. The Mikro-tip catheter was connected to a Powerlab system, and blood pressure and heart rate was recorded and saved in a computer. In addition, the blood flow velocity above and below the artery constriction site was determined by a Doppler method.
After the hemodynamic measurement was completed (taking about 0.5-1 hr), rats were euthanized. The fetuses, placenta tissues, and hearts were harvested and weighed individually.

[5] = tested on: pregnant SHR rats; test: Blood pressure after injection in pregnant spontaneous hypertensive rats (SHR); format: in vivo, rat; conditions: low dose 30 nmoles/kg
From the text: as §2

[6] = high dosage 10 μg/kg/hr for four days
[7] = low dose 3.3 μg/kg/hr for four days

| blood aspartate aminotransferase level ([2]; mouse, in vivo) [U/liter] | Compound | average heart weight ([1]; doxorubicin 10 mg/kg body weight alone (Dox group)) [mg] | reduction of doxorubicin-induced loss of heart weight ([1]; co-treatment with doxorubicin 10 mg/kg, peptide injected twice daily, five days, Dox group vs. Dox+ADM group) | duration of sustained reduction of blood pressure (hypotensive effect) [3] [h] | average fetus weight [4, 6] [mg] | average heart weight [4, 6] [mg per gram body weight] | average placenta weight [4, 6] [mg] | body weight lost during the four-day experimental period [4, 6] [grams] | heart rate [4, 6] [beats/min] | mean arterial pressure [4, 6] [mmHg] | average fetus weight [4, 7] [mg] | average placenta weight [4, 7] [mg] | mean arterial pressure [4, 7] [mmHg] | average heart weight ([1]; co-treatment with doxorubicin 10 mg/kg, peptide injected twice daily, five days) [mg] | duration of blood pressure reduction ([3]; low dose 30 nmoles/kg, pregnant Sprague Dawley rats) [h] | duration of hypotensive effects [5] | blood aspartate aminotransferase level ([2]; Dox + stable analog, high dose 50 nM/Kg body weight) [U/liter] | effect on doxorubicin-elevated aspartate aminotransferase level ([2]; Dox + stable analog, low dose 25 nM/Kg BW) |
| --- | --- | --- | --- | --- | --- | --- | --- | --- | --- | --- | --- | --- | --- | --- | --- | --- | --- | --- |
| 300.7±33.6 | COc1cccc2c1C(=O)c1c(O)c3c(c(O)c1C2=O)C[C@@](O)(C(=O)CO)C[C@@H]3O[C@H]1C[C@H](N)[C@H](O)[C@H](C)O1 [doxorubicin, reference compound] | 9.3 ± 0.4 |  |  |  |  |  |  |  |  |  |  |  |  |  |  |  |  |
|  | adrenomedullin (YRQSMNNFQGLRSFGCRFGTCTVQKLAHQIYQFTDKDKDNVAPRSKISPQGY; ends and bridges not checked; cysteine pairing not given here; UniProt P35318 95-146, looked up) [wild-type ADM, wild-type adrenomedullin, 52 amino acids, 1 intramolecular disulfide bond, ligand of CLR/RAMP receptors, reference compound] |  | not statistically significant | ≤ 2 |  |  |  |  |  |  |  |  |  |  |  |  |  |  |
|  | Ace-K(Pal)GCRFGTCTVQKLAHQIYQFTDKDKDNVAPRSKISPQGY-NH2 (KGCRFGTCTVQKLAHQIYQFTDKDKDNVAPRSKISPQGY; N-acetyl, palmitoyl-Lys, C-terminal amide; MOD_RES (1)..(1) …ON; LIPID (1)..(1) …; MOD_RES (39)..(39) AMIDATION) [long-acting stable analog] |  |  | 4 | 483 ± 92 | 3.16±0.06 | 253 ± 36 | 3±3 | 379±8 | 93±5 | 577 ± 166 | 301 ± 46 | 107±4 | 11.0 ± 0.6 | 2 | over 8 hr | 200.1±10.0 | no statistically significant effect |

From patent US11701409B2, “Dosing and use of long-acting CLR/ramp agonists” (Adepthera LLC, priority 2016, dated 2023)
